Experimental data as given in US20200223826A1, “Glucose-6-Phosphate Dehydrogenase (G6PD)-Modulating Agents And Methods Of Treating G6PD Deficiency” (The Board of Trustees of the Leland Stanford Junior …, priority 2017, published 2020).
Marks after values point to notes of the source that are not given here. Blank lines part the entries; values can stand above or below the compound they belong to.

Assays:
zebrafish embryos = assay: Pericardial edema in zebrafish embryos; format: in vivo; conditions: 50 μg/ml at 24 hpf
Description: Embryos were dechorinated with pronase at 24 hours post fertilization (hpf) and treated with 50 μg/ml of chloroquine and/or AG1 by directly adding the compounds to the well. For ROS measurements, embryos were incubated with compounds for 2 hours, and then the ROS detecting reagent (CM-H2DCFDA) was added at a final concentration of 500 ng/ml to the well for a total treatment time of 5 hours. One embryo was placed to each well of a black, opaque 96-well plate. The florescence was analyzed with excitation/emission at 485/525 nm. After ROS assays, embryos at about 32 hpf were pooled and lysed in buffer containing 50 mM Tris (pH 7.4), 150 mM NaCl, 1 mM EDTA, 0.1% NP-40, and protease inhibitor cocktail, which was followed by three cycles of freeze and thawing in liquid nitrogen. The lysate was centrifuged at 14,000 rpm at 4° C. for 15 minutes. Total protein concentration in the supernatants (total lysate) was determined by Bradford method. 50 μg of total lysate was loaded onto 10% SDS-PAGE gels and the protein level was examined by Western blot using anti-G6PD antibody (Abcam (G6PD: AB87230)). 10 μg of total lysate was used for enzymatic assay. 50 μg of the lysate was used to measure NADPH levels using a NADPH quantification kit (Biovision), according to the manufacturer's instructions.
Live embryos were anesthetized and mounted in 3% methylcellulose. Embryos were imaged with a Leica M205FA microscope equipped with a 1.0× Plan Apochromatic objective and a SPOT Flex camera or a Leica DM4500B compound microscope equipped with a QImaging Retiga-SRV camera. For hemoglobin staining, fixed embryos were stained with o-dianisidine as previously reported (10), cleared, mounted in 100% glycerol, and imaged with a Leica M205FA microscope equipped with a 1.0× Plan Apochromatic objective and a SPOT Flex camera. All images were captured using SPOT or MetaMorph imaging software (Diagnostic Imaging Inc.) and processed in Photoshop (Adobe). Adjustments were limited to brightness levels and cropping. Analysis was carried out by an observer blinded to the experimental conditions.

[1] = molecular target: T1, wt G6PD obtained from a blood sample (Homo sapiens, UniProt P11413); assay: G6PD enzyme activation on wt G6PD from a blood sample; format: biochemical; conditions: 100 uM compound
T1 construct: tissue Stanford Blood Center; host or cells: blood / erythrocytes
Description: Enzyme activity was measured by monitoring NADPH production, which was coupled with diaphorase converting resazurin to fluorescent resorufin (excitation at 565 nm and emission at 590 nm); fluorescent signal was thus proportional to G6PD activity. Assays were performed at 25° C. and run for 5 minutes in buffer containing 50 mM Tris (pH 7.4), 0.5 mM EDTA, 3.3 mM MgCl2, 1 U/ml diaphorase, 0.1 mM resazurin. 10 ng of recombinant enzymes or 10 μg of cell lysates was used for the assay with 10 μM NADP^+ (Sigma) as cofactor and 100 μM G6P (Sigma) as substrate. […]
De-identified blood samples were obtained from the Stanford Blood Center. […] G6PD activity was measured (Beutler E. Red cell metabolism: A manual of biochemical methods (3rd edition). Grune & Stratton (1984)). […] Hemoglobin release in the supernatant was monitored by measuring absorbance at 540 nm. […] After wash, the samples were lysed with 0.1% Triton X-100 (final concentration), and the florescence was analyzed with excitation/emission at 485/525 nm. GSH measurement was determined using a Cayman glutathione assay kit (Cayman Chemicals, 703002). […] The absorbance was read at 412 nm. For storage assay, a 5% erythrocyte suspension was stored at 4° C. with and without 1 μM AG1, and hemolysis and G6PD activity were monitored every week for 28 days to examine whether AG1 improves preservation of erythrocytes over time. […]

Canton G6PD = molecular target: T2, Canton G6PD (Homo sapiens, UniProt P11413, R459L); assay: Canton G6PD enzyme activity, diaphorase-coupled assay; format: biochemical; conditions: Canton G6PD
T2 construct: His (pET-28a) (N, cleaved yes); made in house; host or cells: E. coli C43 (DE3)
Description: (§1) Enzyme activity was measured by monitoring NADPH production, which was coupled with diaphorase converting resazurin to fluorescent resorufin (excitation at 565 nm and emission at 590 nm); fluorescent signal was thus proportional to G6PD activity. Assays were performed at 25° C. and run for 5 minutes in buffer containing 50 mM Tris (pH 7.4), 0.5 mM EDTA, 3.3 mM MgCl2, 1 U/ml diaphorase, 0.1 mM resazurin. 10 ng of recombinant enzymes or 10 μg of cell lysates was used for the assay with 10 μM NADP^+ (Sigma) as cofactor and 100 μM G6P (Sigma) as substrate. Steady-state kinetic parameters were obtained by varying concentrations of NADP^+ (0-10 μM) with a constant concentration of G6P (100 μM) and similarly for G6P (0-100 μM) with a constant concentration of NADP^+ (10 μM) with 10 ng of recombinant enzymes. Data analysis was performed using GraphPad Prism software v.6 (GraphPad Software, La Jolla, Calif. USA). Kinetic parameters were obtained by fitting the data to the Michaelis-Menten equation.
The diaphorase-coupled enzyme assay as described above was used to screen a library of compounds for small molecule activators. The compounds were added to Canton G6PD enzyme reaction mixture at a final concentration of 16.67 μM using Caliper Life Sciences Staccato system with a Twister II robot and a Sciclone ALH3000 (Caliper Life Sciences, Alameda, Calif. USA) integrated with a V&P Scientific pin tool, which was followed by incubation for 3 hours. Addition of G6P then initiated the reaction, which was run for 2.5 minutes. The fluorescent signals were recorded 4 times during the run using Molecular Devices AnalystGT (Molecular Devices, Sunnyvale, Calif. USA). Any compounds showing 30% activation of the enzyme were rescreened in a dose-dependent manner (0-30 μM, duplicate) to identify potential hits.
(§2) Based on preliminary results with compound AG1, a variety of compounds of interest were prepared and assessed in G6PD enzyme activation assays, according to the methods described herein.

Canton W509A G6PD = molecular target: T3, Canton W509A G6PD (Homo sapiens, UniProt P11413, R459L/W509A); assay: Canton W509A G6PD enzyme activation; format: biochemical
T3 construct: His (pET-28a) (N, cleaved yes); made in house; host or cells: E. coli C43 (DE3)
Description: as §1, §2

[2] = system: point mutants of the Canton variant of G6PD; assay: Effect of point mutations of Canton G6PD on compound activity; format: biochemical, human; conditions: mutations on the side opposite the putative binding site
Description: The gene encoding wild-type (WT) G6PD was inserted into the pET-28a vector, using NdeI and SalI restriction sites by polymerase chain reaction (PCR). Site-directed mutagenesis to generate G6PD variants was performed using appropriate primer sets according to the manufacturer's guidelines (Agilent). All constructs were verified by sequencing.
as §1, with “equation. […]” for “equation.”

G6PD = G6PD activation activity, compounds with various linkers; format: biochemical; conditions: 100 uM compound
Description: Enzyme activity was measured by monitoring NADPH production, which was coupled with diaphorase converting resazurin to fluorescent resorufin (excitation at 565 nm and emission at 590 nm); fluorescent signal was thus proportional to G6PD activity. Assays were performed at 25° C. and run for 5 minutes in buffer containing 50 mM Tris (pH 7.4), 0.5 mM EDTA, 3.3 mM MgCl2, 1 U/ml diaphorase, 0.1 mM resazurin. 10 ng of recombinant enzymes or 10 μg of cell lysates was used for the assay with 10 μM NADP^+ (Sigma) as cofactor and 100 μM G6P (Sigma) as substrate. […] Data analysis was performed using GraphPad Prism software v.6 (GraphPad Software, La Jolla, Calif. USA).

T3 sequence (P11413 whole entry R459L/W509A): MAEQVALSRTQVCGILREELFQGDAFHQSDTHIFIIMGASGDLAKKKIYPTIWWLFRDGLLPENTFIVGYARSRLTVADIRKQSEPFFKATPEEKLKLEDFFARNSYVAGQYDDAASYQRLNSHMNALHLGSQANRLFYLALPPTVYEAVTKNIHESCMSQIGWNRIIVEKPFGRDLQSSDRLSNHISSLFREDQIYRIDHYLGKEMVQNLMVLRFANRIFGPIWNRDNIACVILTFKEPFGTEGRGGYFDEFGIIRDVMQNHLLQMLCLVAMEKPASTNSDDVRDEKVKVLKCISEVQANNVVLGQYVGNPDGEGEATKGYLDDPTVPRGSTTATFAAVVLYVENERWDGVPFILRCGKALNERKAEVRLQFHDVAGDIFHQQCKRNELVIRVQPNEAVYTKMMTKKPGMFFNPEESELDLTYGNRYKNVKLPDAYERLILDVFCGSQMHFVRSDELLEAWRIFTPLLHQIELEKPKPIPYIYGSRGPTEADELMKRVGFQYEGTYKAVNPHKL
T2 sequence (P11413 whole entry R459L): as the sequence (P11413 whole entry R459L/W509A) above, with A509W counted along it
T1 sequence (P11413 2-515 limits assumed): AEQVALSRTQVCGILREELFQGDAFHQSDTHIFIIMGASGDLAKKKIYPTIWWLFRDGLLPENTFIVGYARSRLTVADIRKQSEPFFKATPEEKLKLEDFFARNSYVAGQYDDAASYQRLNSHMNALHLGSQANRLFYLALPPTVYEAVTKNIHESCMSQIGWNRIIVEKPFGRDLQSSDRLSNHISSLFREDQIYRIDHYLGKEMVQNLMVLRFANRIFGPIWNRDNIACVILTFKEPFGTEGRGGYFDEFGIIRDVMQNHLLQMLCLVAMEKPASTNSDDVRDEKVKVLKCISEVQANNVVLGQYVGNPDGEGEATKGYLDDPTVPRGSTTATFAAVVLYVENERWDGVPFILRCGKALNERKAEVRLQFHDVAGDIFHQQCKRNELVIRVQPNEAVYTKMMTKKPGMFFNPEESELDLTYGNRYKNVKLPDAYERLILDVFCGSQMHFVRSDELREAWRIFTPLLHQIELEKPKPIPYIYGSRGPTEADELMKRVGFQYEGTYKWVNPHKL

Compound: CCN(CC)CCCC(C)Nc1ccnc2cc(Cl)ccc12 (stereo not drawn) [chloroquine, reference compound]
effect of chloroquine on embryos (zebrafish embryos): led to pericardial edema and increased ROS levels

enzyme activity at 100 µM [1]: 154% | AC50 (Canton G6PD): 74 µM | Amax (Canton G6PD): 2.0 | AC50 (Canton W509A G6PD): 58 µM | Amax (Canton W509A G6PD): 3.8
Compound: c1cc(CNCCc2ccc3c(c2)OCO3)c2c(CNCCc3ccc4c(c3)OCO4)cccc2c1 [AR4-078]

Compound: 2-[2-(1H-indol-3-yl)ethylamino]ethanethiol [AG1]
effect of mutations on AC50 [2]: no effect on AC50 | Enzyme activity (%) [1]: 127% | Enzyme activity (%) (G6PD): 156%^c
